Data: the NIST ThermoML archive (doi:10.1016/j.fluid.2019.02.010)
± gives the expanded uncertainty stated by the source.

Test: xn = mol fraction of the nth substance listed
Conditions: 101 kPa, Liquid, Vibrating tube method

Structure (SMILES)	mass density (293 K, x2 = 0.667) [kg/m3]	mass density (298 K, x2 = 0.667) [kg/m3]	mass density (303 K, x2 = 0.667) [kg/m3]	mass density (308 K, x2 = 0.667) [kg/m3]	mass density (313 K, x2 = 0.667) [kg/m3]	mass density (318 K, x2 = 0.667) [kg/m3]	mass density (323 K, x2 = 0.667) [kg/m3]	mass density (328 K, x2 = 0.667) [kg/m3]	other results
CCN(CC)CC(=O)Nc1c(C)cccc1C [2-(diethylamino)-N-(2,6-dimethylphenyl)acetamide] + CCCCCCCCCC(=O)O	960.9 ± 0.6	956.8 ± 0.6	952.8 ± 0.6	948.7 ± 0.6	944.7 ± 0.6	940.6 ± 0.6	936.4 ± 0.6	932.3 ± 0.6	mass density (293 K, x2 = 0.75): 952.5 ± 0.6 kg/m3; mass density (293 K, x2 = 0.8): 944.9 ± 0.6 kg/m3; mass density (298 K, x2 = 0.75): 948.4 ± 0.6 kg/m3; mass density (298 K, x2 = 0.8): 940.9 ± 0.6 kg/m3; mass density (303 K, x2 = 0.75): 944.3 ± 0.6 kg/m3; mass density (303 K, x2 = 0.8): 936.9 ± 0.6 kg/m3; mass density (308 K, x2 = 0.75): 940.2 ± 0.6 kg/m3; mass density (308 K, x2 = 0.8): 932.9 ± 0.6 kg/m3; mass density (313 K, x2 = 0.75): 936.1 ± 0.6 kg/m3; mass density (313 K, x2 = 0.8): 928.9 ± 0.6 kg/m3; mass density (318 K, x2 = 0.75): 931.9 ± 0.6 kg/m3; mass density (318 K, x2 = 0.8): 924.7 ± 0.6 kg/m3; mass density (323 K, x2 = 0.75): 927.7 ± 0.6 kg/m3; mass density (323 K, x2 = 0.8): 920.6 ± 0.6 kg/m3; mass density (328 K, x2 = 0.75): 923.5 ± 0.6 kg/m3; mass density (328 K, x2 = 0.8): 916.4 ± 0.6 kg/m3
CCN(CC)CC(=O)Nc1c(C)cccc1C [2-(diethylamino)-N-(2,6-dimethylphenyl)acetamide] + CCCCCCCCCCCC(=O)O	949.6 ± 0.6	945.6 ± 0.6	941.6 ± 0.6	937.6 ± 0.6	933.6 ± 0.6	929.6 ± 0.5	925.55 ± 0.54	921.5 ± 0.5	
CCN(CC)CC(=O)Nc1c(C)cccc1C [2-(diethylamino)-N-(2,6-dimethylphenyl)acetamide] + Cc1ccc(C(C)C)c(O)c1	989.1 ± 0.2	985.4 ± 0.2	981.6 ± 0.2	977.9 ± 0.2	974.2 ± 0.2	970.4 ± 0.2	966.6 ± 0.2	962.9 ± 0.2	
Cc1ccc(C(C)C)c(O)c1 [3-methyl-6-isopropylphenol] + CCCCCCCCCC(=O)O									mass density (293 K, x2 = 0.5): 931.8 ± 0.5 kg/m3; mass density (298 K, x2 = 0.5): 928 ± 0.5 kg/m3; mass density (303 K, x2 = 0.5): 924.2 ± 0.5 kg/m3; mass density (308 K, x2 = 0.5): 920.3 ± 0.5 kg/m3; mass density (313 K, x2 = 0.5): 916.5 ± 0.5 kg/m3; mass density (318 K, x2 = 0.5): 912.6 ± 0.5 kg/m3; mass density (323 K, x2 = 0.5): 908.7 ± 0.4 kg/m3; mass density (328 K, x2 = 0.5): 904.9 ± 0.4 kg/m3
CCCCCCCCCC(=O)O [decanoic acid] + CC(C)[C@@H]1CC[C@@H](C)C[C@H]1O									mass density (293 K, x1 = 0.5): 901.1 ± 0.4 kg/m3; mass density (298 K, x1 = 0.5): 897.6 ± 0.4 kg/m3; mass density (303 K, x1 = 0.5): 894 ± 0.4 kg/m3; mass density (308 K, x1 = 0.5): 890.4 ± 0.4 kg/m3; mass density (313 K, x1 = 0.5): 886.7 ± 0.4 kg/m3; mass density (318 K, x1 = 0.5): 883.1 ± 0.4 kg/m3; mass density (323 K, x1 = 0.5): 879.4 ± 0.4 kg/m3; mass density (328 K, x1 = 0.5): 875.7 ± 0.4 kg/m3
CCCCCCCC[N+](CCCCCCCC)(CCCCCCCC)CCCCCCCC.[Br-] [tetraoctylammonium bromide] + CCCCCCCCCC(=O)O	932.9 ± 0.8	929.6 ± 0.8	926.3 ± 0.8	923 ± 0.8	919.7 ± 0.8	916.5 ± 0.7	913.2 ± 0.7	910 ± 0.7	
